Test results: patent publication EP3423441B1, “IODINATED ANALOGS OF CHOLINE, METHODS OF PREPARATION THEREOF, AND USE THEREOF AS MEDICAMENTS” (Univerzita Palackého v Olomouci, priority 2016, dated 2017)

Columns and labels:
[1] = system: choline transporters; assay: In vitro determination of IC50: inhibition of [^3H]choline chloride accumulation in PC-3 cells; type: cell-based; conditions: cell line PC-3 (human prostate carcinoma), [^3H]choline chloride 0.81 × 10^-6 M, 60 min at 37 °C
Method: IC50 value corresponds to a concentration of the given analog of choline which reduces the accumulation of choline chloride, the natural ligand of choline transporterss, to 50 % of the maximum value. For the assay, the tritium labeled choline chloride, i.e. [^3H]choline chloride, was used. The assay was performed in vitro on the cell line PC-3 derived from a human prostate carcinoma, which is known to overexpress choline transporters. […] As the negative control, a cell line of human ovarian carcinoma SKOV3 prepared to the confluence of 90 % in 24-well plates was used.
The cultivation medium was removed from the thus prepared cells in cultivation plates and the cells were rinsed with phosphate buffered saline (PBS). Subsequently, 0.3 mL of "incubation buffer" (25 mM Tris/HCl, 5.4 mM KCl, 1.8 mM CaCl2, 0.8 mM MgSO4, 5 mM glucose, 140 mM NaCl, pH adjusted to 7.4) was added to the cells. Then 0.1 mL of the solution of the tested substance (analog of choline) in the incubation buffer was added to the PC-3 cells in such concentrations, that after adding [^3H]choline chloride the resulting concentrations of the tested analog would be following: 0 M, 10^-8 M, 10^-7 M, 10^-6 M, 5 × 10^-6 M, 10^-5 M, 10^-4 M, 5 × 10^-4 M, 10^-3 M, 5×10^-3 M. Each concentration was tested in triplicate.
Subsequently, all cells prepared in this manner (PC-3 and SKOV3) were incubated with the analogs of choline for 15 minutes at the temperature of 37 °C.
Then 0.1 mL of the solution of the [^3H]choline chloride in the incubation buffer was added to all cell-containing wells, so that 0.1 mL of the solution had the activity of 15 kBq and that the final concentration of the [^3H]choline chloride in the medium with the cells was 0.81 × 10^-6 M. The cells were then incubated at 37 °C for a period of 60 min. After the incubation, all buffer solution was removed from the cells. The cells were rinsed with PBS, which was subsequently removed, and 0.2 mL of aqueous NaOH solution (0.1 M) was added to each well. The cells were incubated with sodium hydroxide for 30 min at 37 °C. The lysate was then homogenized with a pipette and 10 µL of the lysate were used for the determination of protein concentration by bicinchonic acid assay (BCA).
The remaining lysate (180 µL) was quantitatively transferred into scintillation vials containing a previously prepared scintillation solution (2 mL of the solution in each vial). Each well was then additionally rinsed with 0.2 mL of pure water and this solution was added to the corresponding scintillation vials. Scintillation vials were closed and their content was stirred on a shaker.
To another three scintillation vials containing scintillation solution (2 mL of the solution in each vial) the standard samples of [^3H]choline chloride were added (i.e. 10 µl of the [^3H]choline chloride solution together with 180 µl of aqueous NaOH solution (0.1 M) and 200 µl of water). The vials were closed and their content was stirred on the shaker.
Subsequently, radioactivity of each scintillation vial was measured using a liquid scintillation counter (Tri-Carb 2910TR Liquid Scintillation Counter, PerkinElmer). The recorded counts per second (cps) were then used to calculate the accumulation of [^3H]choline chloride in the individual cell samples. […] These values were used to construct a sigmoid curve of dependence between the rate of [^3H]choline chloride accumulation and the competing ligand (analog of choline) concentration(inhibition curve, Figure 2). The IC50 values were calculated from these inhibition curves.

[2] = in vitro; conditions: liver microsomes
[3] = Binding to plasmatic proteins; conditions: plasma
[4] = Stability in the plasma
[5] = Microsomal stability; conditions: hepatic microsomes

Compound	IC50 [1] [µM]	also measured
C[N+](C)(C)CCO [Choline]	3.7	
COc1ccc(CC[N+](C)(C)CCO)cc1I.Cc1ccc(S(=O)(=O)[O-])cc1 [Example 1, (2-hydroxyethyl)-[2-(3-iodo-4-methoxyphenyl)ethyl]-dimethylammonium 4-methylbenzenesulfonate]	47	microsomal CLint [2]: 8.4 µL/min/mg; fraction unbound [3]: 0.805; Plasma stability (120 min) [4]: 28.4%; Microsomal stability t1l2 [5]: 165.0 min
COc1ccc(CC[N+]23CCC(CC2)C(O)C3)cc1I.Cc1ccc(S(=O)(=O)[O-])cc1 (stereo not shown) [Example 2, 3-hydroxy-1-[2-(3-iodo-4-methoxyphenyl)ethyl]quinuclidin-1-ium 4-methylbenzenesulfonate]	92	microsomal CLint [2]: 14.2 µL/min/mg; fraction unbound [3]: 0.748; Plasma stability (120 min) [4]: 59.0%; Microsomal stability t1l2 [5]: 97.6 min
COc1c(I)cc(CC[N+](C)(C)CCO)cc1I.Cc1ccc(S(=O)(=O)[O-])cc1 [Example 3, (2-hydroxyethyl)-[2-(3,5-diiodo-4-methoxyphenyl)ethyl]-dimethylammonium 4-methylbenzenesulfonate]	25	microsomal CLint [2]: 1040 µL/min/mg; fraction unbound [3]: 0.512; Plasma stability (120 min) [4]: 76.4%; Microsomal stability t1l2 [5]: 1.3 min
COc1ccc(CCC[N+](C)(C)CCO)cc1I.Cc1ccc(S(=O)(=O)[O-])cc1 [Example 4, (2-hydroxyethyl)-[3-(3-iodo-4-methoxyphenyl)propyl]-dimethylammonium 4-methylbenzenesulfonate]	19	microsomal CLint [2]: 1120 µL/min/mg; fraction unbound [3]: 0.715; Plasma stability (120 min) [4]: 63.9%; Microsomal stability t1l2 [5]: 1.2 min
C[N+](C)(CCO)CCc1ccc(I)cc1.Cc1ccc(S(=O)(=O)[O-])cc1 [Example 5, (2-hydroxyethyl)-[2-(4-iodophenyl)ethyl]-dimethylammonium 4-methylbenzenesulfonate]	7.4	microsomal CLint [2]: 88.6 µL/min/mg; fraction unbound [3]: 0.653; Plasma stability (120 min) [4]: 43.0%; Microsomal stability t1l2 [5]: 15.6 min
C[N+]1(CCc2ccc(I)cc2)CCCC(O)C1.Cc1ccc(S(=O)(=O)[O-])cc1 (stereo not shown) [Example 6, 3-hydroxy-1-[2-(4-iodophenyl)ethyl]-1-methylpiperidin-1-ium 4-methylbenzenesulfonate]	83	microsomal CLint [2]: 1230 µL/min/mg; fraction unbound [3]: 0.735; Plasma stability (120 min) [4]: 81.3%; Microsomal stability t1l2 [5]: 1.1 min
C[N+](C)(CCO)Cc1cccc(I)c1 [Example 9, (2-hydroxyethyl)-(3-iodobenzyl)-dimethylammonium methanesulfonate]	99	
OCC[N+]1(Cc2cccc(I)c2)CCCC1 [Example 10, 1-(2-hydroxyethyl)-1-(3-iodobenzyl)pyrrolidin-1-ium methanesulfonate]	13	
C[N+](C)(CCO)Cc1ccc(I)cc1 [Example 11, (2-hydroxyethyl)-(4-iodobenzyl)-dimethylammonium bromide]	150	
CC[N+](CC)(CCO)Cc1ccc(I)cc1 [Example 12, diethyl-(2-hydroxyethyl)-(4-iodobenzyl)ammonium bromide]	80	
OCC[N+]1(Cc2ccc(I)cc2)CCCC1 [Example 13, 1-(2-hydroxyethyl)-1-(4-iodobenzyl)pyrrolidin-1-ium bromide]	29	
OCC[N+]1(Cc2ccc(I)cc2)CCCC1 [Example 20, 1-(2-hydroxyethyl)-1-(4-iodobenzyl)pyrrolidin-1-ium 4-methylbenzenesulfonate]		microsomal CLint [2]: 310 µL/min/mg; IC50 ([1]; 4-methylbenzenesulfonate): 6.3 µM
CCCCCCOc1ccc(CCC[N+](C)(C)CCO)cc1I [Example 21, [3-(4-hexyloxy-3-iodophenyl)propyl]-(2-hydroxyethyl)-dimethylammonium 4-methylbenzenesulfonate]	0.43	
CCCCCCCCCCOc1ccc(CCC[N+](C)(C)CCO)cc1I [Example 22, [3-(4-decyloxy-3-iodophenyl)propyl]-(2-hydroxyethyl)-dimethylammonium methanesulfonate]	1.9	
OCC[N+]1(CCOc2ccccc2I)CCCC1 [Example 24, 1-(2-hydroxyethyl)-1-[2-(2-iodophenoxy)ethyl]pyrrolidin-1-ium bromide]	4.7	
C[N+](C)(CCO)CCOc1ccc(I)cc1 [Example 25, (2-hydroxyethyl)-[2-(4-iodophenoxy)ethyl]-dimethylammonium bromide]	23	

Compound	IC50 [1] [µM]	also measured
OCC[N+]1(CCOc2ccc(I)cc2)CCCC1 [Example 26, 1-(2-hydroxyethyl)-1-[2-(4-iodophenoxy)ethyl]pyrrolidin-1-ium bromide]	18	
C[N+](C)(CCO)CCOc1cccc(I)c1 [Example 27, (2-hydroxyethyl)-[2-(3-iodophenoxy)ethyl]-dimethylammonium bromide]	22	
OCC[N+]1(CCOc2cccc(I)c2)CCCC1 [Example 28, 1-(2-hydroxyethyl)-1-[2-(3-iodophenoxy)ethyl]pyrrolidin-1-ium bromide]	15	
C[N+](C)(CCO)CCCCCCOc1cccc(I)c1 [Example 29, (2-hydroxyethyl)-[6-(3-iodophenoxy)hexyl]-dimethylammonium bromide]	0.044	
OCC[N+]1(CCCCCCOc2cccc(I)c2)CCCC1 [Example 30, 1-(2-hydroxyethyl)-1-[6-(3-iodophenoxy)hexyl]pyrrolidin-1-ium bromide]	0.91	
C[N+](C)(CCO)CCCCOc1ccccc1I [Example 31, (2-hydroxyethyl)-[4-(2-iodophenoxy)butyl]-dimethylammonium bromide]	11	
OCC[N+]1(CCCCOc2ccccc2I)CCCC1 [Example 32, 1-(2-hydroxyethyl)-1-[4-(2-iodophenoxy)butyl]pyrrolidin-1-ium bromide]	5.1	
C[N+](C)(CCO)CCc1ccc(I)s1 [Example 33, (2-hydroxyethyl)-[2-(5-iodothiophen-2-yl)ethyl]-dimethylammonium 4-methylbenzenesulfonate]	0.45	
OCC[N+]1(CCc2ccc(I)s2)CCCC1 [Example 34, 1-(2-hydroxyethyl)-1-[2-(5-iodothiophen-2-yl)ethyl]pyrrolidin-1-ium 4-methylbenzenesulfonate]	10	
OCC[N+]1(Cc2ccc(I)cc2)CCOCC1 [Example 35, 4-(2-hydroxyethyl)-4-(4-iodobenzyl)morpholin-4-ium bromide]	270	
OCC[N+]1(Cc2ccccc2I)CCOCC1 [Example 36, 4-(2-hydroxyethyl)-4-(2-iodobenzyl)morpholin-4-ium chloride]	43	
C[N+](C)(CCO)CCCCCCOc1cccnc1I [Example 37, (2-hydroxyethyl)-{6-[(2-iodopyridin-3-yl)oxy]hexyl}-dimethylammonium bromide]	1.4	
C[N+](C)(CCO)CCCCOc1ccc(-c2ccccc2)cc1I [Example 39, (2-hydroxyethyl)-{4-[(3-iodo-[1,1'-biphenyl]-4-yl)oxy]butyl}-dimethylammonium bromide]	1.3	
C[N+](C)(CCO)CCCCCCOc1ccc(I)c([N+](=O)[O-])c1 [Example 40, (2-hydroxyethyl)-[6-(4-iodo-3-nitrophenoxy)hexyl]-dimethylammonium bromide]	0.14	
C[N+](C)(CF)CCO [Fluoromethylcholine, reference compound]	16	
(2-hydroxyethyl)-{4-[(2-iodo-6-methylpyridin-3-yl)oxy]butyt}-dimethylammonium bromide [Example 38]	18	
